Measured values as given in ChEMBL document CHEMBL3351916, “Synthesis and cytotoxic evaluation of novel ester-triazole-linked triterpenoid-AZT conjugates” (Bioorg Med Chem Lett, 2014).

What was measured:
KB = assay: Cytotoxicity against human KB cells; format: functional, cell-based
HepG2 = assay: Cytotoxicity against human HepG2 cells; format: functional, cell-based

Row | Structure (SMILES) | IC50 (KB) [µM] | IC50 (HepG2) [µM]
1 | C=C(C)[C@@H]1CC[C@]2(C(=O)O)CC[C@]3(C)[C@H](CC[C@@H]4[C@@]5(C)CC[C@@H](O)[C@@](C)(C(=O)O)[C@@H]5CC[C@]43C)[C@@H]12 | 110 | 223
2 | C#CCOC(=O)[C@]12CC[C@@H](C(=C)C)[C@@H]1[C@H]1CC[C@@H]3[C@@]4(C)CC[C@H](O)C(C)(C)[C@@H]4CC[C@@]3(C)[C@]1(C)CC2 | > 259 | 114
3 | C=C(C)[C@@H]1CC[C@]2(C(=O)O)CC[C@]3(C)[C@H](CC[C@@H]4[C@@]5(C)CCC(=O)[C@H](C)[C@@H]5CC[C@]43C)[C@@H]12 | 7.7 | 11.2
4 | C#CCOC(=O)[C@]12CC[C@@H](C(=C)C)[C@@H]1[C@H]1CC[C@@H]3[C@@]4(C)CC[C@H](OC(=O)CCC(=O)O)C(C)(C)[C@@H]4CC[C@@]3(C)[C@]1(C)CC2 | 22.2 | 49.9
5 | C#CCOC(=O)[C@]12CC[C@@H](C(=C)C)[C@@H]1[C@H]1CC[C@@H]3[C@@]4(C)CC[C@H](OC(=O)CCCC(=O)O)C(C)(C)[C@@H]4CC[C@@]3(C)[C@]1(C)CC2 | 28.7 | 19.9
6 | C#CCOC(=O)[C@]12CC[C@@H](C(=C)C)[C@@H]1[C@H]1CC[C@@H]3[C@@]4(C)CC[C@H](OC(=O)CC(C)CC(=O)O)C(C)(C)[C@@H]4CC[C@@]3(C)[C@]1(C)CC2 (stereo partly specified) | 12.5 | 129
7 | C=C(C)[C@@H]1CC[C@]2(C(=O)OCc3cn([C@H]4C[C@H](n5cc(C)c(=O)[nH]c5=O)O[C@@H]4CO)nn3)CC[C@]3(C)[C@H](CC[C@@H]4[C@@]5(C)CC[C@H](O)C(C)(C)[C@@H]5CC[C@]43C)[C@@H]12 | 5.9 | 7
8 | C=C(C)[C@@H]1CC[C@]2(C(=O)OCc3cn([C@H]4C[C@H](n5cc(C)c(=O)[nH]c5=O)O[C@@H]4CO)nn3)CC[C@]3(C)[C@H](CC[C@@H]4[C@@]5(C)CC[C@H](OC(=O)CCC(=O)O)C(C)(C)[C@@H]5CC[C@]43C)[C@@H]12 | 24.7 | 20.6
9 | C=C(C)[C@@H]1CC[C@]2(C(=O)OCc3cn([C@H]4C[C@H](n5cc(C)c(=O)[nH]c5=O)O[C@@H]4CO)nn3)CC[C@]3(C)[C@H](CC[C@@H]4[C@@]5(C)CC[C@H](OC(=O)CCCC(=O)O)C(C)(C)[C@@H]5CC[C@]43C)[C@@H]12 | 20.4 | 18.3
10 | C=C(C)[C@@H]1CC[C@]2(C(=O)OCc3cn([C@H]4C[C@H](n5cc(C)c(=O)[nH]c5=O)O[C@@H]4CO)nn3)CC[C@]3(C)[C@H](CC[C@@H]4[C@@]5(C)CC[C@H](OC(=O)CC(C)CC(=O)O)C(C)(C)[C@@H]5CC[C@]43C)[C@@H]12 (stereo partly specified) | 111 | 35.2
11 | Cc1cn([C@H]2C[C@H](n3cc(COC(=O)[C@]45CC[C@@H](C)[C@H](C)[C@H]4C4=CC[C@@H]6[C@@]7(C)CC[C@H](O)C(C)(C)[C@@H]7CC[C@@]6(C)[C@]4(C)CC5)nn3)[C@@H](CO)O2)c(=O)[nH]c1=O | 28.5 | 34
12 | Cc1cn([C@H]2C[C@H](n3cc(COC(=O)[C@]45CCC(C)(C)C[C@H]4C4=CC[C@@H]6[C@@]7(C)CC[C@H](O)C(C)(C)[C@@H]7CC[C@@]6(C)[C@]4(C)CC5)nn3)[C@@H](CO)O2)c(=O)[nH]c1=O | 6.3 | 7.4
13 | C#CCOC(=O)[C@]12CC[C@@H](C(=C)C)[C@@H]1[C@H]1CC[C@@H]3[C@@]4(C)CCC(=O)[C@H](C)[C@@H]4CC[C@@]3(C)[C@]1(C)CC2 | > 267 | > 267
14 | C#CCOC(=O)[C@]12CC[C@@H](C(=C)C)[C@@H]1[C@H]1CC(=O)[C@@H]3[C@@]4(C)CCC(=O)[C@H](C)[C@@H]4CC[C@@]3(C)[C@]1(C)CC2 | 63.9 | 59.5
15 | C=C(C)[C@@H]1CC[C@]2(C(=O)OCc3cn([C@H]4C[C@H](n5cc(C)c(=O)[nH]c5=O)O[C@@H]4CO)nn3)CC[C@]3(C)[C@H](CC[C@@H]4[C@@]5(C)CCC(=O)[C@H](C)[C@@H]5CC[C@]43C)[C@@H]12 | > 172 | > 172
16 | C=C(C)[C@@H]1CC[C@]2(C(=O)OCc3cn([C@H]4C[C@H](n5cc(C)c(=O)[nH]c5=O)O[C@@H]4CO)nn3)CC[C@]3(C)[C@H](CC(=O)[C@@H]4[C@@]5(C)CCC(=O)[C@H](C)[C@@H]5CC[C@]43C)[C@@H]12 | > 168 | > 168
17 | C#CCOC(=O)[C@]12CC[C@@H](C(=C)C)[C@@H]1[C@H]1CC[C@@H]3[C@@]4(C)CC[C@H](O)[C@H](C)[C@@H]4CC[C@@]3(C)[C@]1(C)CC2 | 40 | 133

Row | Structure (SMILES) | IC50 (KB) [µM] | IC50 (HepG2) [µM]
18 | C#CCOC(=O)[C@]12CC[C@@H](C(=C)C)[C@@H]1[C@H]1CC[C@@H]3[C@@]4(C)CC[C@H](OC(=O)CCC(=O)O)[C@H](C)[C@@H]4CC[C@@]3(C)[C@]1(C)CC2 | 10.6 | 11.4
19 | C#CCOC(=O)[C@]12CC[C@@H](C(=C)C)[C@@H]1[C@H]1CC[C@@H]3[C@@]4(C)CC[C@H](OCCCC(=O)O)[C@H](C)[C@@H]4CC[C@@]3(C)[C@]1(C)CC2 | 9.9 | 27.3
20 | C=C(C)[C@@H]1CC[C@]2(C(=O)OCc3cn([C@H]4C[C@H](n5cc(C)c(=O)[nH]c5=O)O[C@@H]4CO)nn3)CC[C@]3(C)[C@H](CC[C@@H]4[C@@]5(C)CC[C@H](OC(=O)CCC(=O)O)[C@H](C)[C@@H]5CC[C@]43C)[C@@H]12 | 7.3 | 7.8
21 | C=C(C)[C@@H]1CC[C@]2(C(=O)OCc3cn([C@H]4C[C@H](n5cc(C)c(=O)[nH]c5=O)O[C@@H]4CO)nn3)CC[C@]3(C)[C@H](CC[C@@H]4[C@@]5(C)CC[C@H](OCCCC(=O)O)[C@H](C)[C@@H]5CC[C@]43C)[C@@H]12 | > 148 | > 148
22 | C=C(C)[C@@H]1CC[C@]2(C(=O)OCc3cn([C@H]4C[C@H](n5cc(C)c(=O)[nH]c5=O)O[C@@H]4CO)nn3)CC[C@]3(C)[C@H](CC[C@@H]4[C@@]5(C)CC[C@H](O)[C@H](C)[C@@H]5CC[C@]43C)[C@@H]12 | 34 | 7.3
23 | C=C(C)[C@@H]1CC[C@]2(C(=O)O)CC[C@]3(C)[C@H](C[C@@H](O)[C@@H]4[C@@]5(C)CCC(=O)[C@@H](C)[C@@H]5CC[C@]43C)[C@@H]12 | 46.8 | 58
24 | C#CCOC(=O)[C@]12CC[C@@H](C(=C)C)[C@@H]1[C@H]1C[C@@H](O)[C@@H]3[C@@]4(C)CCC(=O)[C@@H](C)[C@@H]4CC[C@@]3(C)[C@]1(C)CC2 | 21.9 | 39.6
25 | C=C(C)[C@@H]1CC[C@]2(C(=O)OCc3cn([C@H]4C[C@H](n5cc(C)c(=O)[nH]c5=O)O[C@@H]4CO)nn3)CC[C@]3(C)[C@H](C[C@@H](O)[C@@H]4[C@@]5(C)CCC(=O)[C@@H](C)[C@@H]5CC[C@]43C)[C@@H]12 | 136 | 8.5
26 | C=C(C)[C@@H]1CC[C@]2(C(=O)O)CC[C@]3(C)[C@H](C[C@@H](O)[C@@H]4[C@@]5(C)CC[C@@H](O)[C@@](C)(C(=O)O)[C@@H]5CC[C@]43C)[C@@H]12 | > 255 | > 255
27 | C#CCOC(=O)[C@]12CCC(C)(C)C[C@H]1C1=CC[C@@H]3[C@@]4(C)CC[C@H](O)C(C)(C)[C@@H]4CC[C@@]3(C)[C@]1(C)CC2 [3BETA-HYDROXY-OLEN-12-EN-28-PROPARGYLATE] | 38.4 | > 259
28 | C#CCOC(=O)[C@]12CC[C@@H](C)[C@H](C)[C@H]1C1=CC[C@@H]3[C@@]4(C)CC[C@H](O)C(C)(C)[C@@H]4CC[C@@]3(C)[C@]1(C)CC2 [3BETA-HYDROXY-URS-12-EN-28-PROPARGYLATE] | 38 | 36.5
29 | C=C(C)[C@@H]1CC[C@]2(C(=O)O)CC[C@]3(C)[C@H](CC[C@@H]4[C@@]5(C)CC[C@H](O)C(C)(C)[C@@H]5CC[C@]43C)[C@@H]12 [BETULINIC ACID] | 27.5 | 23.9
30 | Cc1c2ccncc2c(C)c2c1[nH]c1ccccc12 [ELLIPTECINE] | 1.2 | 1.2
31 | CC1(C)CC[C@]2(C(=O)O)CC[C@]3(C)C(=CC[C@@H]4[C@@]5(C)CC[C@H](O)C(C)(C)[C@@H]5CC[C@]43C)[C@@H]2C1 [OLEANOLIC_ACID] | > 280 | > 280
32 | C[C@H]1[C@H](C)CC[C@]2(C(=O)O)CC[C@]3(C)C(=CC[C@@H]4[C@@]5(C)CC[C@H](O)C(C)(C)[C@@H]5CC[C@]43C)[C@H]12 [URSOLIC ACID] | 31.5 | 42.9
33 | Cc1cn([C@H]2C[C@H](N=[N+]=[N-])[C@@H](CO)O2)c(=O)[nH]c1=O [ZIDOVUDINE] | > 479 | > 479
